Source: ChEMBL document CHEMBL1833857, “Histone deacetylase activators: N-acetylthioureas serve as highly potent and isozyme selective activators for human histone deacetylase-8 on a fluorescent substrate” (Bioorg Med Chem Lett, 2011)
Calls of active or inactive are those of the source. The rule behind the calls is not given here.

How the values were obtained:
[1] = molecular target: Histone deacetylase 2 (Homo sapiens) (UniProt Q92769); assay: Inhibition of HDAC2 using Fluor-de-Lys as substrate at 100 uM by spectrofluorometry
Chain of Histone deacetylase 2 (Homo sapiens) (Q92769 whole entry): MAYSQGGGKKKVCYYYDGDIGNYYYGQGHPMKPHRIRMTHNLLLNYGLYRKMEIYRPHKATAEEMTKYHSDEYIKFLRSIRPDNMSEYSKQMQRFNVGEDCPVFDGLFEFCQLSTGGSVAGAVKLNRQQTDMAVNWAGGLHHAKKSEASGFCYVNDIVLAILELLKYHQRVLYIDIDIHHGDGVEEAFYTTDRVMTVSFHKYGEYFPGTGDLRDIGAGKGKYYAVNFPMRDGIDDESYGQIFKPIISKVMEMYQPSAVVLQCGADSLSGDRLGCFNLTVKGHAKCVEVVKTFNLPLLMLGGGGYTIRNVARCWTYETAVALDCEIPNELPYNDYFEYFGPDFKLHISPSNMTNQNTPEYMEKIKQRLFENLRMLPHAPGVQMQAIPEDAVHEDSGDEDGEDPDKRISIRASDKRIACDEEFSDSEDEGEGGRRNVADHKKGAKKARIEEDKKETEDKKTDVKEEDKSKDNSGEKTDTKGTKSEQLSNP

[2] = molecular target: Histone deacetylase 2 (Homo sapiens) (UniProt Q92769); assay: Activation of HDAC2 using Fluor-de-Lys as substrate at 100 uM by spectrofluorometry
[3] = molecular target: Histone deacetylase 4 (Homo sapiens) (UniProt P56524); assay: Inhibition of HDAC4 using trifluoroacetyl-lysine containing fluorogenic substrate at 100 uM by spectrofluorometry
Chain of Histone deacetylase 4 (Homo sapiens) (P56524 whole entry): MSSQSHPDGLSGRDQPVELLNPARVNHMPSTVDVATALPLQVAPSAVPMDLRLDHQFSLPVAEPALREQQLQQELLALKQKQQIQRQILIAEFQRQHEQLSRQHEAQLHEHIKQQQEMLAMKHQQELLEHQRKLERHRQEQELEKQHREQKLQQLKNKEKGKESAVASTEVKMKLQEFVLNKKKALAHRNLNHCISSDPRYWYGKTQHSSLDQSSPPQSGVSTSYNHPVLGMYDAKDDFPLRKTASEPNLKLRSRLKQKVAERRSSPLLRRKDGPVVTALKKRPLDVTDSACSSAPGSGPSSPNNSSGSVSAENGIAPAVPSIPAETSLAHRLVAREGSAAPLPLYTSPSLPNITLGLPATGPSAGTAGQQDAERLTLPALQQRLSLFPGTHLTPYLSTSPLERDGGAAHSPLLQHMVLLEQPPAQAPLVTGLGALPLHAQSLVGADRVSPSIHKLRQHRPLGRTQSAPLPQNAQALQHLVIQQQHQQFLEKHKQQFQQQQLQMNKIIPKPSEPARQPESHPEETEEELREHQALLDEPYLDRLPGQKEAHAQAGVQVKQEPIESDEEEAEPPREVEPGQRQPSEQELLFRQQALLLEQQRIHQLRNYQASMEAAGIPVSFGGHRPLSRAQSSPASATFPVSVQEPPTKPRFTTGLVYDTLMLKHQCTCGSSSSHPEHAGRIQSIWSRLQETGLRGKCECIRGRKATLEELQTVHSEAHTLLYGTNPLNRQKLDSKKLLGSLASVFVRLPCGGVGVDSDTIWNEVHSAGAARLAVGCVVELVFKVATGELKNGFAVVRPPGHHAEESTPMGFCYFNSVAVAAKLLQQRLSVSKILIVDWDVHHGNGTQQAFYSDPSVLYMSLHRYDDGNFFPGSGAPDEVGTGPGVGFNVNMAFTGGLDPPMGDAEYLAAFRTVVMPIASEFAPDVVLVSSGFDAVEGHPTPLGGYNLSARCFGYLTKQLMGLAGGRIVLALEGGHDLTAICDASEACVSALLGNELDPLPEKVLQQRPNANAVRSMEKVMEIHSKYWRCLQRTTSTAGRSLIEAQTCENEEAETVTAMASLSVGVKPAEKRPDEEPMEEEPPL

[4] = molecular target: Histone deacetylase 4 (Homo sapiens) (UniProt P56524); assay: Activation of HDAC4 using trifluoroacetyl-lysine containing fluorogenic substrate at 100 uM by spectrofluorometry
[5] = molecular target: Histone deacetylase 4 (Homo sapiens) (UniProt P56524); assay: Activation of HDAC4 using trifluoroacetyl-lysine containing fluorogenic substrate at 10 uM by spectrofluorometry
[6] = molecular target: T1, Histone deacetylase 11 (Homo sapiens) (UniProt Q96DB2); assay: Activation of HDAC11 using Fluor-de-Lys as substrate at 10 uM by spectrofluorometry
T1 sequence (whole entry): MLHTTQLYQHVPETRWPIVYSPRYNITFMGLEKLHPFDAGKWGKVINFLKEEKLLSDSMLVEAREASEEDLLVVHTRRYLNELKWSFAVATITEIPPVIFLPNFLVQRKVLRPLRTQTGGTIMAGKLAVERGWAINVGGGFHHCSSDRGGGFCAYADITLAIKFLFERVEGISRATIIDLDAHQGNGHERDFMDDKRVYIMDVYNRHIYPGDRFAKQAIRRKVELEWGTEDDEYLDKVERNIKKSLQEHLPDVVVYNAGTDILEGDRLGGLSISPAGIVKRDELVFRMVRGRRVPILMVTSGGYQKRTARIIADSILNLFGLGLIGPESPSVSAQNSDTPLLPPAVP

[7] = molecular target: T1, Histone deacetylase 11 (Homo sapiens); assay: Activation of HDAC11 using Fluor-de-Lys as substrate at 100 uM by spectrofluorometry
[8] = molecular target: T2, Polyamine deacetylase HDAC10 (Homo sapiens) (UniProt Q969S8); assay: Activation of HDAC10 using Fluor-de-Lys as substrate at 100 uM by spectrofluorometry
T2 sequence (whole entry): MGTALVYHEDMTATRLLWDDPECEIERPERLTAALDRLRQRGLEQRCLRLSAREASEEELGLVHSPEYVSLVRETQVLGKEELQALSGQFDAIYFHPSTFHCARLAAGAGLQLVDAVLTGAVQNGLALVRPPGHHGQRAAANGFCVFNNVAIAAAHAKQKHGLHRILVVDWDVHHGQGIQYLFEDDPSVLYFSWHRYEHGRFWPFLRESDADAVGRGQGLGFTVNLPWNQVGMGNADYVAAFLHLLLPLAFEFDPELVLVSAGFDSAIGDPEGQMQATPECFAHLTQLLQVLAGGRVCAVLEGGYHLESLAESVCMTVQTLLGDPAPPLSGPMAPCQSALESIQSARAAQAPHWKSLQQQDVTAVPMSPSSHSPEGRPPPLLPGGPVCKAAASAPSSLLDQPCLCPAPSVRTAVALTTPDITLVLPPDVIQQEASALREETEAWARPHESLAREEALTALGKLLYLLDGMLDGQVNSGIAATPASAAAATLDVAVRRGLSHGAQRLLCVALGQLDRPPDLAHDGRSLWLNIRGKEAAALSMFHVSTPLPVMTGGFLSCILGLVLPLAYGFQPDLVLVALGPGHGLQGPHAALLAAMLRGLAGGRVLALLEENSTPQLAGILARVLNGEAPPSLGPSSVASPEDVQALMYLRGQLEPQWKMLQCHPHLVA

[9] = molecular target: T3, Protein deacetylase HDAC6 (Homo sapiens) (UniProt Q9UBN7); assay: Activation of HDAC6 using Fluor-de-Lys as substrate at 100 uM by spectrofluorometry
T3 sequence (whole entry): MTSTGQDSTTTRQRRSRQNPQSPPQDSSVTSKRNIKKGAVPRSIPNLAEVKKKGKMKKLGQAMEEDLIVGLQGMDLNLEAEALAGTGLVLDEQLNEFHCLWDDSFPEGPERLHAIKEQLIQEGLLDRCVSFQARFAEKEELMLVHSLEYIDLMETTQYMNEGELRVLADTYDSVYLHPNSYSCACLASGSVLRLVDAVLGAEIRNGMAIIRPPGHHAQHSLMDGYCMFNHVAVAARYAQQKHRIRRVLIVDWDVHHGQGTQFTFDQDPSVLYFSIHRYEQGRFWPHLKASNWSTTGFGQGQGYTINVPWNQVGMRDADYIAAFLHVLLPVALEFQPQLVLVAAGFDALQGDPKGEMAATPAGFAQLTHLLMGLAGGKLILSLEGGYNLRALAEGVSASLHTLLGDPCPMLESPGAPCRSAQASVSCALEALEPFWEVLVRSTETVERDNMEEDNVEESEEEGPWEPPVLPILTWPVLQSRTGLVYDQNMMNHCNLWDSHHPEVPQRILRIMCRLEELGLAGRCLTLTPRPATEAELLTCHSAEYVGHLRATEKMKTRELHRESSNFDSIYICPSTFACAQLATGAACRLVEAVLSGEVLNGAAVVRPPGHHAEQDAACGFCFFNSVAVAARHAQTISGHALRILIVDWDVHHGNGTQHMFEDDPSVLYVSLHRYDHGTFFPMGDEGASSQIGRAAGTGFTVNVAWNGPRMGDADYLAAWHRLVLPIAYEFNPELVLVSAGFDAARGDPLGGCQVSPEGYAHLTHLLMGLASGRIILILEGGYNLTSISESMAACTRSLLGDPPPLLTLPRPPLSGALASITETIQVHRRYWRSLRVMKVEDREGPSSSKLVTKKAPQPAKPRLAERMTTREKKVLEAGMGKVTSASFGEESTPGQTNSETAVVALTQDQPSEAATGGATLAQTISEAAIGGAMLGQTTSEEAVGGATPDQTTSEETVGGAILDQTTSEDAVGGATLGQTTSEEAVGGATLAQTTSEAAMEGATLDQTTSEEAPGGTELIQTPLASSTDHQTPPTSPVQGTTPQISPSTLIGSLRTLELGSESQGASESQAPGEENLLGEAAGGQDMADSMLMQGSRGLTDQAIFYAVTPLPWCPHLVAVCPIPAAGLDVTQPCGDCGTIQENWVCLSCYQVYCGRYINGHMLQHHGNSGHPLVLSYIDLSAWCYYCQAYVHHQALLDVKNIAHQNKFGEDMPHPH

[10] = molecular target: T4, Histone deacetylase 8 (Homo sapiens) (UniProt Q9BY41); assay: Activation of recombinant human HDAC8 assessed as ratio of the initial rate of reaction in the absence and presence of compound using Fluor-de-Lys as substrate at 10 uM by spectrofluorometry
T4 sequence (whole entry): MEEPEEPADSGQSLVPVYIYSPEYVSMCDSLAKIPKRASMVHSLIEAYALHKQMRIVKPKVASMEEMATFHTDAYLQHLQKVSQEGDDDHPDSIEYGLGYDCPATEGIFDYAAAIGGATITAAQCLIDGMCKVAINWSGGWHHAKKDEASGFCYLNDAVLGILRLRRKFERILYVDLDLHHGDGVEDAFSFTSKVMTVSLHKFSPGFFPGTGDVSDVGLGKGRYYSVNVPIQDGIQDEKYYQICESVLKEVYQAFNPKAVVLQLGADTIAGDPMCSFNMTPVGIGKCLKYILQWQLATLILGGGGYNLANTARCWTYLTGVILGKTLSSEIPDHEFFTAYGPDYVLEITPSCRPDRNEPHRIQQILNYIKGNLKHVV

[11] = molecular target: Histone deacetylase 2 (Homo sapiens) (UniProt Q92769); assay: Activation of HDAC2 using Fluor-de-Lys as substrate at 10 uM by spectrofluorometry
[12] = molecular target: T3, Protein deacetylase HDAC6 (Homo sapiens); assay: Inhibition of HDAC6 using Fluor-de-Lys as substrate at 100 uM by spectrofluorometry
[13] = molecular target: Histone deacetylase 1 (Homo sapiens) (UniProt Q13547); assay: Inhibition of HDAC1 using Fluor-de-Lys as substrate at 100 uM by spectrofluorometry
Chain of Histone deacetylase 1 (Homo sapiens) (Q13547 whole entry): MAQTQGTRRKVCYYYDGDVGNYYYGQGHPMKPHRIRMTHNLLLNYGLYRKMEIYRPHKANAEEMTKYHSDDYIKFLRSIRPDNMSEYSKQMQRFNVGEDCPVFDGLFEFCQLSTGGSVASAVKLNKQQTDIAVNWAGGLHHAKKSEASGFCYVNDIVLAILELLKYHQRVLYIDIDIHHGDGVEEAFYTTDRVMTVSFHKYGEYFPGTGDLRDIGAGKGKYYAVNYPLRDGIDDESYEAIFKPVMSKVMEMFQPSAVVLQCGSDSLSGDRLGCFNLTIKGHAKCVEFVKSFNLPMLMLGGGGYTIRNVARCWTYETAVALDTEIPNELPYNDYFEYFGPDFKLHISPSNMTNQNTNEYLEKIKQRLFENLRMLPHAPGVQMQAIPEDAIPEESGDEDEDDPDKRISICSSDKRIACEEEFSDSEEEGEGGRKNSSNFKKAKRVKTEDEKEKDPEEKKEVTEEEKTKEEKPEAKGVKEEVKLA

[14] = molecular target: Histone deacetylase 3 (Homo sapiens) (UniProt O15379); assay: Activation of HDAC3 using Fluor-de-Lys as substrate at 10 uM by spectrofluorometry
Chain of Histone deacetylase 3 (Homo sapiens) (O15379 whole entry): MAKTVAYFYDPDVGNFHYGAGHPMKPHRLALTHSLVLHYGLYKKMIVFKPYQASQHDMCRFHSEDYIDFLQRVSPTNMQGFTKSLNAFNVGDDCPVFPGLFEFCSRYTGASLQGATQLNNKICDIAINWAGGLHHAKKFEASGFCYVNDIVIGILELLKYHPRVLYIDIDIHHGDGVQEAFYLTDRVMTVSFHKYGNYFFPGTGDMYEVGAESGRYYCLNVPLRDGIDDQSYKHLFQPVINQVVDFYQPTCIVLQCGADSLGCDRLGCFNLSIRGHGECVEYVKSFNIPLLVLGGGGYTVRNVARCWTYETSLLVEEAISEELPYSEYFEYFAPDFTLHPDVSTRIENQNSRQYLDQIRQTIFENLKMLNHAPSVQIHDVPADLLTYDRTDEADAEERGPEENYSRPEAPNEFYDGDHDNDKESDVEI

[15] = molecular target: Histone deacetylase 3 (Homo sapiens) (UniProt O15379); assay: Inhibition of HDAC3 using Fluor-de-Lys as substrate at 100 uM by spectrofluorometry
[16] = molecular target: T3, Protein deacetylase HDAC6 (Homo sapiens); assay: Activation of HDAC6 using Fluor-de-Lys as substrate at 10 uM by spectrofluorometry
[17] = molecular target: T1, Histone deacetylase 11 (Homo sapiens); assay: Inhibition of HDAC11 using Fluor-de-Lys as substrate at 100 uM by spectrofluorometry
[18] = molecular target: Histone deacetylase 3 (Homo sapiens) (UniProt O15379); assay: Activation of HDAC3 using Fluor-de-Lys as substrate at 100 uM by spectrofluorometry
[19] = molecular target: T2, Polyamine deacetylase HDAC10 (Homo sapiens); assay: Activation of HDAC10 using Fluor-de-Lys as substrate at 10 uM by spectrofluorometry
[20] = molecular target: T2, Polyamine deacetylase HDAC10 (Homo sapiens); assay: Inhibition of HDAC10 using Fluor-de-Lys as substrate at 100 uM by spectrofluorometry
[21] = molecular target: T4, Histone deacetylase 8 (Homo sapiens); assay: Maximum activation of recombinant human HDAC8 using Fluor-de-Lys as substrate by spectrofluorometry relative to control
[22] = molecular target: T4, Histone deacetylase 8 (Homo sapiens); assay: Activation of recombinant human HDAC8 assessed as increase in ratio of Kcat to Km using Fluor-de-Lys as substrate by spectrofluorometry relative to control
[23] = molecular target: T4, Histone deacetylase 8 (Homo sapiens); assay: Activation of recombinant human HDAC8 using Fluor-de-Lys as substrate by spectrofluorometry
[24] = molecular target: T4, Histone deacetylase 8 (Homo sapiens); assay: Activation of recombinant human HDAC8 assessed as decrease in Km using Fluor-de-Lys as substrate by spectrofluorometry
[25] = molecular target: T4, Histone deacetylase 8 (Homo sapiens); assay: Activation of recombinant human HDAC8 assessed as increase in Kcat using Fluor-de-Lys as substrate by spectrofluorometry relative to control
[26] = Solubility of the compound at 100 uM; assay type: physicochemical
[27] = molecular target: Histone deacetylase 1 (Homo sapiens) (UniProt Q13547); assay: Activation of HDAC1 using Fluor-de-Lys as substrate at 100 uM by spectrofluorometry
[28] = molecular target: Histone deacetylase 1 (Homo sapiens) (UniProt Q13547); assay: Activation of HDAC1 using Fluor-de-Lys as substrate at 10 uM by spectrofluorometry

Row | Structure (SMILES) | inhibition [1] | Activity [2] | inhibition [3] | Activity [4] | Activity [5] | Activity [6] | Activity [7] | Activity [8] | Activity [9] | fold change (FC) [10] | Activity [11] | inhibition [12] | inhibition [13] | Activity [14] | inhibition [15] | Activity [16] | inhibition [17] | Activity [18] | Activity [19] | inhibition [20] | also measured
1 | O=C(NC(=S)NC1CCCCC1)c1ccccc1 | inactive | inactive | inactive | inactive | inactive | inactive | inactive | inactive | inactive | 5.6 | inactive | inactive | 5% | inactive | inactive | inactive | inactive | inactive | inactive | inactive | 
2 | O=C(NC(=S)Nc1ccccc1)c1ccccc1 | 8% |  | inactive | inactive | inactive |  |  |  |  | 12 |  | 30% | 8% |  | 6% |  | 14% |  |  | 15% | fold change (FC) [21]: 26.8; fold change (FC) [22]: 16; Ka [23]: 12.4 µM; fold change (FC) [24]: 3; fold change (FC) [25]: 5
3 | Cc1cc(=O)oc2cc(NC(=S)NC(=O)c3ccccc3)ccc12 |  |  |  | inactive | inactive |  |  |  |  | 2 |  |  |  |  |  |  |  |  |  |  | solubility [26]: Insoluble
4 | O=C(NC(=S)NCCc1ccccc1)c1ccccc1 | inactive | inactive | inactive | inactive | inactive |  |  | inactive | inactive | 2 | inactive | inactive | inactive | inactive | inactive | inactive | 6% | inactive | inactive | inactive | Activity [27]: inactive; Activity [28]: inactive
5 | O=C(NC(=S)NCc1ccccc1)c1ccccc1 | inactive | inactive | inactive | inactive | inactive | inactive | inactive | inactive | inactive | 3.3 | inactive | inactive | 5% | inactive | inactive | inactive | inactive | inactive | inactive | inactive | 
6 | O=C(NC(=S)Nc1ccccc1)c1ccccc1F | inactive | inactive | inactive | inactive | inactive | inactive | inactive | inactive | inactive | 3.5 | inactive | inactive | 5% | inactive | inactive | inactive | inactive | inactive | inactive | inactive | 
7 | O=C(NC(=S)NCc1ccc(C(F)(F)F)cc1)c1ccccc1 | 7% |  | inactive | inactive | inactive | inactive | inactive | inactive | inactive | 1.2 |  | inactive | inactive |  | 5% | inactive | inactive |  | inactive | inactive | Activity [27]: inactive; Activity [28]: inactive
